According to ChEMBL document CHEMBL1221304, “Proline isosteres in a series of 2,4-disubstituted pyrrolo[1,2-f][1,2,4]triazine inhibitors of IGF-1R kinase and IR kinase” (Bioorg Med Chem Lett, 2010):

How the values were obtained:
[1] = Permeability by PAMPA assay; assay type: ADME; conditions: for Papp: read-out: permeability
[2] = target: T1, Insulin-like growth factor 1 receptor (Homo sapiens, UniProt P08069); test: Inhibition of IGF1R in IGF1R-SAL cells; assay type: cell-based
[3] = target: T1, Insulin-like growth factor 1 receptor; test: Inhibition of IGF1R

T1 sequence (P08069 31-736 limits assumed): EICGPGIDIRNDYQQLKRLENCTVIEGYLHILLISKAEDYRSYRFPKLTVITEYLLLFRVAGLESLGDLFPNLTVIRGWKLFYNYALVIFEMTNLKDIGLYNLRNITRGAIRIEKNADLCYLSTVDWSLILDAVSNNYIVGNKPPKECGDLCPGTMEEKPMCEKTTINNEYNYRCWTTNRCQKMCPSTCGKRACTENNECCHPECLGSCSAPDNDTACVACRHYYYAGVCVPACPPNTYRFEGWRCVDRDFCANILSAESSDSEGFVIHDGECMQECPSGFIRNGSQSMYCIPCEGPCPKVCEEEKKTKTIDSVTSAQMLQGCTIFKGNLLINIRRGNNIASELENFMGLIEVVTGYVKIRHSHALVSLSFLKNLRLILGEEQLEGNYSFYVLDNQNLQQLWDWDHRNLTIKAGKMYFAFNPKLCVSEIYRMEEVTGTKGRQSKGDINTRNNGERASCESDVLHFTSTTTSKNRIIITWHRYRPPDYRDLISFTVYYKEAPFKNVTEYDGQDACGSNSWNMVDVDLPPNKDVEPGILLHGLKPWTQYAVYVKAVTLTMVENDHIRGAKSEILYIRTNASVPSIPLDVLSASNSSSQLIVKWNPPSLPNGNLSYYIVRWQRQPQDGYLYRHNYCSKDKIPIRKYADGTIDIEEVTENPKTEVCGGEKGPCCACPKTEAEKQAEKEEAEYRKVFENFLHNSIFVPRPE
T1 sequence (P08069 741-1367 limits assumed): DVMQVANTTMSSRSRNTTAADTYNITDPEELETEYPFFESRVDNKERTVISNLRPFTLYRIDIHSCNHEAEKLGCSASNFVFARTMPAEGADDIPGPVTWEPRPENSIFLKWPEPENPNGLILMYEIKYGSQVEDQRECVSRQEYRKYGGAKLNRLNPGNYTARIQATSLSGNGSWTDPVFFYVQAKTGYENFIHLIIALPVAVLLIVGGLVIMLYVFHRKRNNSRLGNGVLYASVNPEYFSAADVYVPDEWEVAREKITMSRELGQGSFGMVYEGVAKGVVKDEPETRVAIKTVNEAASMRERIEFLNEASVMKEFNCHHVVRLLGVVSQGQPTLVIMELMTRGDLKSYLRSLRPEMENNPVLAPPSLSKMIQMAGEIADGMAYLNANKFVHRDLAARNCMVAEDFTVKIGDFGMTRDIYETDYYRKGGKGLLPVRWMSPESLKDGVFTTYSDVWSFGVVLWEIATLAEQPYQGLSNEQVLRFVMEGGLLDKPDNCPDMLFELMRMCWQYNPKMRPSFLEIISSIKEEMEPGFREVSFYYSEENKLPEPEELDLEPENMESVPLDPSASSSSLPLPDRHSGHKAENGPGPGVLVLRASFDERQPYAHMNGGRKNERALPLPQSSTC

| Compound | Papp [1] [×10⁻⁶ cm/s] | IC50 [2] [nM] | IC50 [3] [nM] | permeability [1] [×10⁻⁶ cm/s] |
| --- | --- | --- | --- | --- |
| O=C(Nc1ccc(F)nc1)[C@@H]1CCCN1c1nc(Nc2cc(C3CC3)[nH]n2)c2cccn2n1 | 77 | 1 | 2.7 | – |
| O=C(c1ccc(F)nc1)N1CCC[C@H]1c1nc(Nc2cc(C3CC3)[nH]n2)c2cccn2n1 | 72.1 | 162 | – | – |
| O=C(c1ccc(F)nc1)N1CCC[C@@H]1c1nc(Nc2cc(C3CC3)[nH]n2)c2cccn2n1 | 93.5 | – | 8400 | – |
| O=C1CC[C@@H](c2nc(Nc3cc(C4CC4)[nH]n3)c3cccn3n2)N1C(=O)c1ccc(F)nc1 | 60 | 508 | 11 | – |
| O=C(Nc1ccc(F)nc1)C1=C(c2nc(Nc3cc(C4CC4)[nH]n3)c3cccn3n2)CCC1 | 82.2 | 237 | 32 | – |

Continued, values first:

| Papp [1] [×10⁻⁶ cm/s] | IC50 [2] [nM] | IC50 [3] [nM] | permeability [1] [×10⁻⁶ cm/s] | Compound |
| --- | --- | --- | --- | --- |
| 52.5 | 40 | – | – | O=C(NCc1nc(Nc2cc(C3CC3)n[nH]2)c2cccn2n1)c1ccc(F)nc1 |
| 50.9 | 206 | 9.7 | – | O=C(Nc1ccc(F)nc1)[C@@H]1CCC[C@H]1c1nc(Nc2cc(C3CC3)n[nH]2)c2cccn2n1 (stereo in doubt; (+)-25) |
| – | 389 | 190 | 85.4 | O=C(Nc1ccc(F)nc1)[C@@H]1CCC[C@H]1c1nc(Nc2cc(C3CC3)n[nH]2)c2cccn2n1 (stereo in doubt; (-)-25) |
| 63.4 | – | – | – | C[C@@]1(C(=O)Nc2ccc(F)nc2)CCCN1c1nc(Nc2cc(C3CC3)n[nH]2)c2cccn2n1 [BMS-754807] |
